Tests used:
Format in all cases: in vivo
[1] = tested on: soybean (Glycine max var. Winchester); assay: Preemergence herbicidal activity, soybean; details: Rate of Application 0.3 Kg/Ha, examined after 12-17 days
[2] = tested on: wheat (Triticum aestivum var. Lew); assay: Preemergence herbicidal activity, wheat; details: Rate of Application 0.3 Kg/Ha, examined after 12-17 days
[3] = tested on: field corn (Zea mays var. Pioneer 3732); assay: Preemergence herbicidal activity, corn; details: Rate of Application 0.3 Kg/Ha, examined after 12-17 days
[4] = tested on: velvetleaf (Abutilon theophrasti); assay: Preemergence herbicidal activity, velvetleaf; details: Rate of Application 0.3 Kg/Ha, examined after 12-17 days
[5] = tested on: morningglory (Ipomea lacunosa or Ipomea hederacea); assay: Preemergence herbicidal activity, morningglory; details: Rate of Application 0.3 Kg/Ha, examined after 12-17 days
[6] = tested on: common chickweed (Stellaria media); assay: Preemergence herbicidal activity, chickweed; details: Rate of Application 0.3 Kg/Ha, examined after 12-17 days
[7] = tested on: common cocklebur (Xanthium strumarium L.); assay: Preemergence herbicidal activity, cocklebur; details: Rate of Application 0.3 Kg/Ha, examined after 12-17 days
[8] = tested on: blackgrass (Aloepecurus myosuroides); assay: Preemergence herbicidal activity, blackgrass; details: Rate of Application 0.3 Kg/Ha, examined after 12-17 days
[9] = tested on: green foxtail (Setaria viridis); assay: Preemergence herbicidal activity, green foxtail; details: Rate of Application 0.3 Kg/Ha, examined after 12-17 days
[10] = tested on: Johnsongrass (Sorghum halepense); assay: Preemergence herbicidal activity, johnsongrass; details: Rate of Application 0.3 Kg/Ha, examined after 12-17 days
[11] = tested on: soybean (Glycine max var. Winchester); assay: Postemergence herbicidal activity, soybean; details: rate of application 0.3 Kg/Ha, rated after 12-17 days
[12] = tested on: wheat (Triticum aestivum var. Lew); assay: Postemergence herbicidal activity, wheat; details: rate of application 0.3 Kg/Ha, rated after 12-17 days
[13] = tested on: field corn (Zea mays var. Pioneer 3732); assay: Postemergence herbicidal activity, corn; details: rate of application 0.3 Kg/Ha, rated after 12-17 days
[14] = tested on: velvetleaf (Abutilon theophrasti); assay: Postemergence herbicidal activity, velvetleaf; details: rate of application 0.3 Kg/Ha, rated after 12-17 days
[15] = tested on: morningglory (Ipomea lacunosa or Ipomea hederacea); assay: Postemergence herbicidal activity, morningglory; details: rate of application 0.3 Kg/Ha, rated after 12-17 days
[16] = tested on: common chickweed (Stellaria media); assay: Postemergence herbicidal activity, chickweed; details: rate of application 0.3 Kg/Ha, rated after 12-17 days
[17] = tested on: common cocklebur (Xanthium strumarium L.); assay: Postemergence herbicidal activity, cocklebur; details: rate of application 0.3 Kg/Ha, rated after 12-17 days
[18] = tested on: blackgrass (Aloepecurus myosuroides); assay: Postemergence herbicidal activity, blackgrass; details: rate of application 0.3 Kg/Ha, rated after 12-17 days
[19] = tested on: green foxtail (Setaria viridis); assay: Postemergence herbicidal activity, green foxtail; details: rate of application 0.3 Kg/Ha, rated after 12-17 days
[20] = tested on: Johnsongrass (Sorghum halepense); assay: Postemergence herbicidal activity, johnsongrass; details: rate of application 0.3 Kg/Ha, rated after 12-17 days

| Compound | PREEMERGENCE HERBICIDAL ACTIVITY (% CONTROL) SOY [1] [%] | PREEMERGENCE HERBICIDAL ACTIVITY (% CONTROL) WHT [2] [%] | PREEMERGENCE HERBICIDAL ACTIVITY (% CONTROL) CRN [3] [%] | PREEMERGENCE HERBICIDAL ACTIVITY (% CONTROL) ABUTH [4] [%] | PREEMERGENCE HERBICIDAL ACTIVITY (% CONTROL) IPOSS [5] [%] | PREEMERGENCE HERBICIDAL ACTIVITY (% CONTROL) STEME [6] [%] | PREEMERGENCE HERBICIDAL ACTIVITY (% CONTROL) XANPE [7] [%] | PREEMERGENCE HERBICIDAL ACTIVITY (% CONTROL) ALOMY [8] [%] | PREEMERGENCE HERBICIDAL ACTIVITY (% CONTROL) SETVI [9] [%] | PREEMERGENCE HERBICIDAL ACTIVITY (% CONTROL) SORHA [10] [%] | Postemergence herbicidal activity (% control) SOY [11] [%] | Postemergence herbicidal activity (% control) WHT [12] [%] | Postemergence herbicidal activity (% control) CRN [13] [%] | Postemergence herbicidal activity (% control) ABUTH [14] [%] | Postemergence herbicidal activity (% control) IPOSS [15] [%] | Postemergence herbicidal activity (% control) STEME [16] [%] | Postemergence herbicidal activity (% control) XANPE [17] [%] | Postemergence herbicidal activity (% control) ALOMY [18] [%] | Postemergence herbicidal activity (% control) SETVI [19] [%] | Postemergence herbicidal activity (% control) SORHA [20] [%] |
| --- | --- | --- | --- | --- | --- | --- | --- | --- | --- | --- | --- | --- | --- | --- | --- | --- | --- | --- | --- | --- |
| CN(C)C(=O)c1cc2c(Cl)cc(F)c(-n3c(=O)cc(C(F)(F)F)n(C)c3=O)c2o1 [Compound 275] | 100 | 80 | 100 | 100 | 100 | 100 | 100 | 80 | 100 | 95 | 100 | 70 | 90 | 100 | 100 | 100 | 100 | 95 | 100 | 100 |
| Cn1c(C(F)(F)F)cc(=O)n(-c2c(F)cc(Cl)c3[nH]c(C(F)(F)Cl)nc23)c1=O [Compound 366] | 10 | 10 | 0 | 70 | 20 | 0 | 10 | 0 | 50 | 40 | 70 | 30 | 80 | 95 | 80 | 30 | 100 | 30 | 50 | 50 |
| CC(C)c1nc2c(-n3c(=O)cc(C(F)(F)F)n(C)c3=O)c(F)cc(Cl)c2[nH]1 [Compound 368] | 100 | 100 | 95 | 100 | 100 | 100 | 100 | 95 | 100 | 100 | 100 | 100 | 100 | 100 | 100 | 100 | 100 | 100 | 100 | 100 |
